Test results taken from patent US12404249B2, “Heterocyclic derivatives and use thereof” (C&C RESEARCH LABORATORIES, priority 2018, dated 2025).

Experiments:
[1] = test system: prostate cancer cell line (LNCap); assay: Cell growth inhibition assay (Celltiter Glo); type: cell-based; details: Homo sapiens, LNCap cells, 120 hours incubation
Description: Cancer cell inhibitory effects by the compounds of the Examples were evaluated as follows. The prostate cancer cell line (LNCap) used was cultured under the condition according to the vendor's recommendation. LNCap was dispensed into a 96-well plate at 10,000 cells/well. After incubation under the condition of 37° C. and 5% CO2 for 24 hours, the Example compounds of 50 mM DMSO stock were diluted to various concentrations and treated to the 96-well plate containing cells. After treatment of the Example compounds, LNCap cells were incubated in an incubator (37° C., 5% CO2) for 120 hours. After each incubation time, the 96-well plate was observed under a microscope to record the presence or absence of drug precipitation and specificities, and the 96-well plate was kept at room temperature for 30 minutes. Then, after addition of 20 μL of Celltiter Glo solution, the 96-well plate was well shaken for 30 minutes. The growth inhibitory activity was measured on microLUMA LB96P (BERTHOLD) instrument using Glo-vial protocol. As a negative control, a 96 well-plate in which culture medium was added but cells were not plated was used. As a positive control, a 96 well-plate in which cells were plated and 0.1% DMSO instead of drugs was added was used. The results of growth inhibitory effects of the Example compounds on prostate cancer cell line are represented in Table 2.

STAT3 = molecular target: T1, STAT3 (Homo sapiens, UniProt P40763); assay: STAT3 activation inhibition assay (reporter gene assay, LNcaP stable cell line, IL-6 stimulated); type: cell-based; details: LNcaP stable cell line [plasmid STAT3-TA-luc], IL-6 10 ng/mL, 48 hours, luciferase activity; read-out: IC50 (μM) pSTAT3
T1 construct: endogenous in cells; host or cells: LNCaP (human prostate cancer) stably carrying pSTAT3-TA-luc reporter plasmid
Description: Cancer cell lines used for evaluating the compounds of the Examples were purchased from ATCC (American Type Culture Collection) or KCLB (Korean Cell Line Bank), and cultured according to the vendor's recommendation. The human prostate cancer cell line stably expressing the STAT3 promoter (LNcaP stable cell line [plasmid STAT3-TA-luc])—which was prepared to evaluate the inhibitory effect of the compounds of the Examples against dimerization of STAT3—was cultured in RPMI1640 (Cat no. 11875, Gibco), 10% fetal bovine serum (Cat no. SH30071.03, Hyclone) and 150 μg/mL G418 solution (Cat no. 04 727 894 001, Roche).
The reporter gene assay of LNcap stable cell line was carried out by the use of RPMI 1640 medium containing 3% DCC-FBS (without G-418). The cell line was dispensed into two (2) white 96-well plates at 30,000 cells/well/50 μL. The cell line was incubated for 24 hours under the condition of 37° C. and 5% CO2, and then the Example compounds of 50 mM DMSO stock were diluted to various concentrations and treated to two (2) white 96-well plates containing cells. Then, IL-6 was treated to a final concentration of 10 ng/mL. After the treatment of Example compounds and IL-6, the cells were cultured for 48 hours under the condition of 37° C. and 5% CO2. After 48 hours, the 96-well plates were observed under a microscope to record the presence or absence of drug precipitation and specificities, and the 96-well plates were kept at room temperature for 30 minutes. Then, in the case of the first 96-well plate, the culture medium on the plate was removed to measure the luciferase activity, and treated with passive lysis buffer at 20 µL/well and shaken for 30 minutes. The luciferase activity was measured on microLUMA LB96P (BERTHOLD) or Centro XS LB 960 (BERTHOLD) instrument using Luciferase assay system (Cat No. E1501, Promega Corporation). In the case of the second 96-well plate, 20 μL of Glo-mix solution was added to measure cytotoxicity by the compounds of the Examples, and the plate was well shaken for 10 minutes and analyzed on microLUMA LB96P (BERTHOLD) instrument using Glo-vial protocol. As a negative control, a 96 well-plate in which culture medium was added but cells were not plated was used. As a positive control, a 96 well-plate in which cells were plated and 0.1% DMSO and culture medium containing stimulation were added was used.
The results of evaluating the inhibitory effects of the compounds of the Examples against dimerization of STAT3 and STAT1 via STAT3 and STAT1 reporter gene assay are represented in Table 1.

T1 sequence (P40763 whole entry): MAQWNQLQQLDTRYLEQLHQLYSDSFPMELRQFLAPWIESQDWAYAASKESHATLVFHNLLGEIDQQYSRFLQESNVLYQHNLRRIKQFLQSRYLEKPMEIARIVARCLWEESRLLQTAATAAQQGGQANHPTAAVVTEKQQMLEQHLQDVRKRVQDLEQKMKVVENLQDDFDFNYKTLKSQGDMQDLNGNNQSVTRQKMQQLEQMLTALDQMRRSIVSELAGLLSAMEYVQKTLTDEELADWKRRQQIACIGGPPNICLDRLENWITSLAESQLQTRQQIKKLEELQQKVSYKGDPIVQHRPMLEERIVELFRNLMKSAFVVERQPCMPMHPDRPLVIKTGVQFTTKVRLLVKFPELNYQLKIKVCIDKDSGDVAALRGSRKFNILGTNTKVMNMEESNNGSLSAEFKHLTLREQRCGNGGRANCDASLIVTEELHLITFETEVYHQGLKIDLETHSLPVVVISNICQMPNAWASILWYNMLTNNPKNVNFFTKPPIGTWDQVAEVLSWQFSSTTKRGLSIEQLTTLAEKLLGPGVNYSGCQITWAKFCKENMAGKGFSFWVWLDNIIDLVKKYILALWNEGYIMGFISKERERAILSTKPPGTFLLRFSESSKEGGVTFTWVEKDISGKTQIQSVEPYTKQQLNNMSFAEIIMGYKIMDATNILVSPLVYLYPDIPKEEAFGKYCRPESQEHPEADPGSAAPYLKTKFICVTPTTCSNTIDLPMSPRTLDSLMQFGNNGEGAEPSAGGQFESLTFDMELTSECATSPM

SMILES	IC50 [1] [µM]	IC50 (STAT3) [µM]
NS(=O)(=O)c1ccc(CCNc2cc(Cl)nc3ccccc23)cc1 [Example 3, 4-(2-((2-chloroquinolin-4-yl)amino)ethyl)benzenesulfonamide]	5.1	10.5
NS(=O)(=O)c1ccc(CCN(CCc2ccccc2)c2cc(Cl)nc3ccccc23)cc1 [Example 4, 4-(2-((2-chloroquinolin-4-yl)(phenethyl)amino)ethyl)benzenesulfonamide]	> 50	20.9
Cc1cc(NCCc2ccc([N+](=O)[O-])cc2)c2ccccc2n1 [Example 5, 2-methyl-N-(4-nitrophenethyl)quinolin-4-amine]	47.3	38.1
CCc1cccc2c(NCCc3ccc([N+](=O)[O-])cc3)cc(Cl)nc12 [Example 8, 2-chloro-8-ethyl-N-(4-nitrophenethyl)quinolin-4-amine]	16	7.8
COc1ccc2nc(Cl)cc(NCCc3ccc([N+](=O)[O-])cc3)c2c1 [Example 9, 2-chloro-6-methoxy-N-(4-nitrophenethyl)quinolin-4-amine]	7.7	3
O=[N+]([O-])c1ccc(CCNc2cc(Cl)nc3cc(OC(F)(F)F)ccc23)cc1 [Example 12, 2-chloro-N-(4-nitrophenethyl)-7-(trifluoromethoxy)quinolin-4-amine]	9.3	5.8
CCOC(=O)c1ccc2nc(Cl)cc(NCCc3ccc([N+](=O)[O-])cc3)c2c1 [Example 16, ethyl 2-chloro-4-((4-nitrophenethyl)amino)quinolin-6-carboxylate]	21.8	> 50
O=[N+]([O-])c1ccc(CCNc2ccnc3ccccc23)cc1 [Example 17, N-(4-nitrophenethyl)quinolin-4-amine]	4.7	1.6
O=[N+]([O-])c1ccc(CCNc2cc(Cl)nc3ccc(S(=O)(=O)NCCc4ccc([N+](=O)[O-])cc4)cc23)cc1 [Example 19, 2-chloro-N-(4-nitrophenethyl)-4-((4-nitrophenethyl)amino)quinolin-6-sulfonamide]	18.4	> 50
CS(=O)(=O)Nc1ccc(CCNc2cc(Cl)nc3cc(OC(F)(F)F)ccc23)cc1 [Example 24, N-(4-(2-((2-chloro-7-(trifluoromethoxy)quinolin-4-yl)amino)ethyl)phenyl)methanesulfonamide]	6.2	4.1
CS(=O)(=O)Nc1ccc(CCNc2ccnc3cc(OC(F)(F)F)ccc23)cc1 [Example 25, N-(4-(2-((7-(trifluoromethoxy)quinolin-4-yl)amino)ethyl)phenyl)methanesulfonamide]	9.6	1.9
O=[N+]([O-])c1ccc(CCNc2cc(Cl)nc3ccc(N4CCOCC4)cc23)cc1 [Example 28, 2-chloro-6-morpholino-N-(4-nitrophenethyl)quinolin-4-amine 2,2,2-trifluoroacetate]	44.1	32.3
O=[N+]([O-])c1ccc(CCNc2cc(Cl)nc3cc(F)ccc23)cc1 [Example 30, 2-chloro-7-fluoro-N-(4-nitrophenethyl)quinolin-4-amine]	7	2.2

Now those with a lower IC50 [1], led by results:

IC50 [1] [µM]	IC50 (STAT3) [µM]	SMILES
3.5	2.6	O=[N+]([O-])c1ccc(CCNc2cc(Cl)nc3ccccc23)cc1 [Example 1, 2-chloro-N-(4-nitrophenethyl)quinolin-4-amine]
0.81	0.85	CS(=O)(=O)N(O)c1ccc(CCNc2cc(Cl)nc3ccccc23)cc1 [Example 2, N-(4-(2-((2-chloroquinolin-4-yl)amino)ethyl)phenyl)-N-hydroxymethanesulfonamide]
0.69	0.71	Nc1ccc(CCNc2cc(Cl)nc3ccccc23)cc1 [Example 6, N-(4-aminophenethyl)-2-chloroquinolin-4-amine]
0.078	0.038	CS(=O)(=O)Nc1ccc(CCNc2cc(Cl)nc3ccccc23)cc1 [Example 7, N-(4-(2-((2-chloroquinolin-4-yl)amino)ethyl)phenyl)methanesulfonamide]
2.6	3.9	COc1cccc2c(NCCc3ccc([N+](=O)[O-])cc3)cc(Cl)nc12 [Example 10, 2-chloro-8-methoxy-N-(4-nitrophenethyl)quinolin-4-amine]
2.6	1.6	COc1ccc2nc(Cl)cc(NCCc3ccc(NS(C)(=O)=O)cc3)c2c1 [Example 11, N-(4-(2-((2-chloro-6-methoxyquinolin-4-yl)amino)ethyl)phenyl)methanesulfonamide]
2.5	3.1	O=[N+]([O-])c1ccc(CCNc2cc(Cl)nc3cccc(OC(F)(F)F)c23)cc1 [Example 13, 2-chloro-N-(4-nitrophenethyl)-5-(trifluoromethoxy)quinolin-4-amine]
1.9	0.59	O=[N+]([O-])c1ccc(CCNc2cc(Cl)nc3ccc(F)cc23)cc1 [Example 14, 2-chloro-6-fluoro-N-(4-nitrophenethyl)quinolin-4-amine]
1.6	3.1	Cc1cccc2c(NCCc3ccc([N+](=O)[O-])cc3)cc(Cl)nc12 [Example 15, 2-chloro-8-methyl-N-(4-nitrophenethyl)quinolin-4-amine]
0.48	0.21	O=[N+]([O-])c1ccc(CCNc2nc(Cl)nc3ccccc23)cc1 [Example 18, 2-chloro-N-(4-nitrophenethyl)quinazolin-4-amine]
0.74	0.75	O=Nc1ccc(CCNc2cc(Cl)nc3ccccc23)cc1 [Example 20, 2-chloro-N-(4-nitrosophenethyl)quinolin-4-amine]
2.4	2.3	CS(=O)(=O)Nc1ccc(CCNc2ccnc3ccc(F)cc23)cc1 [Example 21, N-(4-(2-((6-fluoroquinolin-4-yl)amino)ethyl)phenyl)methanesulfonamide]
0.074	0.1	CS(=O)(=O)Nc1ccc(CCNc2cc(Cl)nc3ccc(F)cc23)cc1 [Example 22, N-(4-(2-((2-chloro-6-fluoroquinolin-4-yl)amino)ethyl)phenyl)methanesulfonamide]
0.25	0.26	CS(=O)(=O)Nc1ccc(CCNc2nc(Cl)nc3ccccc23)cc1 [Example 23, N-(4-(2-((2-chloroquinazolin-4-yl)amino)ethyl)phenyl)methanesulfonamide]
0.23	0.15	CS(=O)(=O)Nc1ccc(CCNc2cc(Cl)nc3cccc(OC(F)(F)F)c23)cc1 [Example 26, N-(4-(2-((2-chloro-5-(trifluoromethoxy)quinolin-4-yl)amino)ethyl)phenyl)methanesulfonamide]
0.14	0.14	CS(=O)(=O)Nc1ccc(CCNc2ccnc3cccc(OC(F)(F)F)c23)cc1 [Example 27, N-(4-(2-((5-(trifluoromethoxy)quinolin-4-yl)amino)ethyl)phenyl)methanesulfonamide]
2.5	0.64	O=[N+]([O-])c1ccc(CCNc2cc(Cl)nc3cccc(F)c23)cc1 [Example 29, 2-chloro-5-fluoro-N-(4-nitrophenethyl)quinolin-4-amine]
0.21	0.12	O=[N+]([O-])c1ccc(CCNc2cc(Cl)nc3c(F)cccc23)cc1 [Example 31, 2-chloro-8-fluoro-N-(4-nitrophenethyl)quinolin-4-amine]
